# Laboratory results reported in patent publication US5827846A, “Carbazole derivatives as agents against multi-drug resistance” (Novartis Corp., priority 1994, dated 1998).
# Experiments:
# [1] = system: KB-8511 (drug-resistant, P-glycoprotein [Pgp] overexpressing) cells; assay: Inhibition of cell growth of drug-resistant KB-8511 cells (methylene blue staining, 4 days); assay type: cell-based, Human; settings: 5760 min
# Protocol: The KB-8511 cells are kept as stock in the presence of 10 ng/ml of the antineoplastically active substance Colcemid (demecolcine). […] The plates are then incubated under the conditions mentioned above for 4 days. […] After washing, the dye is eluted with 3% (w/v) aqueous hydrochloric acid. The optical density (OD) per well, which is directly proportional to the number of cells, is then measured with a photometer at 665 nm. The IC50 values are calculated by means of a computer system, using the formula
# [2] = system: human KB-8511 tumours; assay: In vivo antitumour activity against multidrug-resistant KB-8511 tumours in nude mice; design: species or system female Balb/c nude mice; settings: for T/C [%] (median tumour volumes treated versus control): KB-8511 tumour
# Protocol: (§1) The determination of the in vivo antitumour activity of test substance B (=N-benzoyl-6-benzyl-staurosporin) against the drug-sensitive parental KB-31 and a multidrug-resistant variant of the KB-31, i.e. the multidrug-resistant variant KB-8511, tumours is carried out in female Balb/c nude mice (Bomholdgaard, Copenhagen, Denmark) bearing serially passaged (minimum of three consecutive transplantations) either the human parental drug-sensitive KB-31 tumours or the human KB-8511 tumours. The KB-8511 tumours overexpress Pgb, the product of the mdr-1 gene (S. Akiyma et al., "Isolation and genetic characterization of human KB cell lines resistant to multiple drug", Somatic Cell and Mol. Gen. 11, 117-126 [1985]). Tumour fragments of approximately 25 mg are transplanted into the left flank of each animal (n=6 per group). […] Tumour growth is monitored twice weekly by measuring perpendicular diameters. Tumour volumes are determined as described by T. Meyer et al., Int. J. Cancer 43, 851-856 (1989), and expressed as relative tumour size (i.e. the increase in tumour volume compared with the tumour volume at the start of the treatment).
# [3] = system: human parental drug-sensitive KB-31 tumours; assay: In vivo antitumour activity against drug-sensitive KB-31 tumours in nude mice; design: species or system female Balb/c nude mice; settings: KB-31 tumour
# Protocol: as §1
smiles,measurement,setting,value
"CC[C@]1(O)C[C@@H]2CN(CCc3c([nH]c4ccccc34)[C@@](C(=O)OC)(c3cc4c(cc3OC)N(C)[C@H]3[C@@](O)(C(=O)OC)[C@H](OC(C)=O)[C@]5(CC)C=CCN6CC[C@]43[C@@H]65)C2)C1 [A, vinblastine]",% growth of KB 8511 cells,[1]; A 2.34 ng/ml alone,101%
same,% growth of KB 8511 cells,[1]; A 4.69 ng/ml alone,101%
same,% growth of KB 8511 cells,[1]; A 9.38 ng/ml alone,98%
same,% growth of KB 8511 cells,[1]; A 18.8 ng/ml alone,98%
same,% growth of KB 8511 cells,[1]; A 37.5 ng/ml alone,98%
same,% growth of KB 8511 cells,[1]; A 75.0 ng/ml alone,90%
same,% growth of KB 8511 cells,[1]; A 150 ng/ml alone,66%
same,% growth of KB 8511 cells,[1]; A 300 ng/ml alone,14%
"CO[C@@H]1[C@H](N(C)C(=O)c2ccccc2)C[C@H]2O[C@]1(C)n1c3ccccc3c3c4c(c5c6ccccc6n2c5c31)C(=O)N(Cc1ccccc1)C4 [B, N-benzoyl-6-benzyl-staurosporin]",% growth of KB 8511 cells,[1]; B 0.1 μmol alone,92%
same,% growth of KB 8511 cells,[1]; B 1 μmol alone (Example 10),95%
same,% growth of KB 8511 cells,[1]; B 1 μmol alone (Example 11),82%
same,Sensitisation of KB-8511 tumours to adriamycin,[2]; 25 mg/kg p.o. 4 hours prior to adriamycin 9.0 mg/kg i.v.,sensitises the multi-drug resistant KB-8511 tumours to adriamycin
same,T/C [%] (median tumour volumes treated versus control),[2]; 1 × 25 mg/kg p.o.,93%
same,T/C [%] (median tumour volumes treated versus control),[3]; 1 × 25 mg/kg p.o.,91%
"COc1cccc2c1C(=O)c1c(O)c3c(c(O)c1C2=O)C[C@@](O)(C(=O)CO)C[C@@H]3O[C@H]1C[C@H](N)[C@H](O)[C@H](C)O1 [C, adriamycin]",T/C [%] (median tumour volumes treated versus control),[2]; 1 × 9 mg/kg i.v.,89%
same,T/C [%] (median tumour volumes treated versus control),[3]; 1 × 9 mg/kg i.v.,13%
same,Maximal tumour regression,"[3]; adriamycin 1×9 mg/kg i.v. alone, on day 5",24%
